Assay [1] deals with IRAK4 protein in THP-1 cells (Homo sapiens (Human), UniProt Q9NWZ3). In words: Degradation of IRAK4 in THP-1 cells, human IRAK4 AlphaLISA assay. The conditions noted are these: 24 h incubation. In kind it is cell-based. In a few lines:
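THP-1 cells, after overnight plating, exposed 24 h at 37 °C to compound at 0.03-3000 nM final. Lysate IRAK4 read by Western blot and by AlphaLISA (acceptor beads 10 μg/mL, biotin anti-IRAK4 1 nM, donor beads 40 μg/mL, 23 °C). DC50 and Dmax from log concentration-response fit.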

The test system of assay [2] is IL-6 production in LPS-induced human PBMCs. In words: IL-6 secreted by LPS-induced human PBMCs (IL-6 AlphaLISA). The assay is classed as cell-based. The conditions noted are these: PBMC, compound 1 h or 20 h, then LPS 100 ng/mL 5 h, read-out: hPBMC IC50. The protocol: Frozen human PBMCs (Milestone, PB010C) were thawed and resuspended in RPMI 1640 medium (Gibco, A1049101) supplemented with 10%/o fetal bovine serum (Gibco, 10099141), 100 U/mL penicillin and 100 sg/mL streptomycin (Gibco, 15140122). On the same day. PBMCs were plated onto a 96-well clear cell plate (Labserv, 310109008) at 150 μL/well, with a cell density of 2×10^5 cells/well. Then 50 μL of diluted compound solution was added to corresponding wells with cells, such that the final concentration of the compound fell within the range of 0.026-10,000 nM. The final concentration of DMSO was 0.25%. […]
IL-6 standard solutions with different concentrations, ranging from […], were prepared by following the instructions for use of the product, 2 μL of each of the IL-6 standard solutions and test samples of cell supernatant were added to a white 384-well plate (PerkinElmer, 6007299), and 8 μL of a mixed solution of 5×anti-IL-6 receptor beads (final concentration of 10 μg/mL) and biotin-labeled anti-IL-6 antibody (final concentration of 1 nM) was then added to each well. […] After the incubation was complete, AlphaLISA signal values were measured on a microplate reader EnVision (PerkinElmer, 2105) in the AlphaScreen standard mode. […] The inhibition rate of the compound at each concentration was calculated by comparing the IL-6 concentration with that of the control group. […]
In general terms: In Alpha technology, singlet oxygen from a donor bead excites a nearby acceptor bead.

The test system of assay [3] is IL-6 production in LPS-induced human whole blood. Put plainly: IL-6 secreted by LPS-induced normal human whole blood PBMCs (IL-6 AlphaLISA). In kind it is cell-based. As to conditions: compound 20 h, then LPS 100 ng/mL 5 h. The protocol:
Fresh normal human whole blood (healthy people from 22-50 years of age, freshly collected blood) anticoagulated with heparin sodium was plated onto a 96-well clear cell plate (Labserv, 310109008) at 190 μL/well, and 10 μL of diluted compound solution was then added to corresponding wells, such that the final concentration of the compound fell within the range of 10-20,000 nM. The final concentration of dimethyl sulfoxide was 0.1%. The compound-treated cell plate was sealed with a plate-sealing membrane. After the plate was incubated in a 37° C., 5% carbon dioxide incubator for 20 h, 10 μL of LPS (0111:B4) (Sigma, L4391) was added, making a final concentration of 100 ng/mL. […]
IL-6 standard solutions with different concentrations, ranging from […], were prepared by following the instructions for use of the product, 2 μL of each of the IL-6 standard solutions and test samples of cell supernatant were added to a white 384-well plate (PerkinElmer, 6007299), and 8 μL of a mixed solution of 5× anti-IL-6 receptor beads (PerminElmer, final concentration of 10 μg/mL) and biotin-labeled anti-IL-6 antibody (PerminElmer, final concentration of 1 nM) was then added to each well. […] After the incubation was complete, AlphaLISA signal values were measured on a microplate reader EnVision (PerkinElmer, 2105) in the AlphaScreen standard mode. […]

In the next assay the target is IRAK4 kinase (Homo sapiens (Human), UniProt Q9NWZ3). Put plainly: IRAK4 kinase activity test (KinEASE-STK S1 HTRF kit). In kind it is biochemical. As to conditions: 2.5 nM IRAK4 kinase, 7 μM ATP, 37° C. 120 min. In a few lines: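 Human IRAK4 (2.5 nM) with 1 μM biotinylated peptide substrate and 7 μM ATP, incubated 120 min at 37 °C. HTRF read-out (Eu anti-phospho-Ser/Thr antibody, XL665-streptavidin; 665/620 nm ratio) after 1 h at room temperature. IC50 from inhibition relative to control by non-linear fit of log concentration.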
A general note: In TR-FRET formats the signal depends on donor and acceptor labels being close together.

IRAK4 protein in THP-1 cells, sequence (Q9NWZ3 whole entry): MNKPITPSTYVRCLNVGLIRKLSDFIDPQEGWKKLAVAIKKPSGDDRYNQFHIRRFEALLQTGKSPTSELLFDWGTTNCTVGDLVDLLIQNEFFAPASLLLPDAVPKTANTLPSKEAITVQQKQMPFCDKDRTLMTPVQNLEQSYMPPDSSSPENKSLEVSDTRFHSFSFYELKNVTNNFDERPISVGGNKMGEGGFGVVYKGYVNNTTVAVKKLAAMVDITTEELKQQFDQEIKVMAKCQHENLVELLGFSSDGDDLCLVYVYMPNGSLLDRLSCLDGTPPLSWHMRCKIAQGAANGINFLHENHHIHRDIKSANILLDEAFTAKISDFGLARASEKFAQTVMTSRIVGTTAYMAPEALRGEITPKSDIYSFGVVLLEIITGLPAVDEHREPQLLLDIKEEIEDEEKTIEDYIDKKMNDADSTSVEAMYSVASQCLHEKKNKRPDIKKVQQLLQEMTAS
IRAK4 kinase, sequence (Q9NWZ3 whole entry): as above

In the case of `O=C1CCN(c2cc(C(=O)N3CCC4(CCC(CN5CCC(n6cc(NC(=O)c7cnn8ccc(N9C[C@H]%10C[C@@H]9CO%10)nc78)c(C(F)F)n6)CC5)CC4)CC3)ccc2Cl)C(=O)N1` [Example 1, 5-((1R,4R)-2-oxa-5-azabicyclo[2.2.1]heptan-5-yl)-N-(1-(1-((3-(4-chloro-3-(2,4-dioxotetrahydropyrimidin-1(2H)-yl)benzoyl)-3-azaspiro[5.5]undecan-9-yl)methyl)piperidin-4-yl)-3-(difluoromethyl)-1H-pyrazol-4-yl)pyrazolo[1,5-a]pyrimidine-3-carboxamide], half-maximal degradation in assay [1] (DC50) was put at 3.7 nM. The compound further had a Dmax in assay [1] of 90%. Further, the IC50 was 3.1 nM in assay [2], 287 nM in assay [3] and 30.3 nM on IRAK4 kinase.
For `O=C1CCN(c2cc(C(=O)N3CCC4(CCN(C[C@H]5CC[C@H](n6cc(NC(=O)c7cnn8ccc(N9C[C@H]%10C[C@@H]9CO%10)nc78)c(C(F)F)n6)CC5)CC4)CC3)ccc2Cl)C(=O)N1` [Example 2, 5-((1R,4R)-2-oxa-5-azabicyclo[2.2.1]heptan-5-yl)-N-(1-((1r,4R)-4-((9-(4-chloro-3-(2,4-dioxotetrahydropyrimidin-1(2H)-yl)benzoyl)-3,9-diazaspiro[5.5]undecan-3-yl)methyl)cyclohexyl)-3-(difluoromethyl)-1H-pyrazol-4-yl)pyrazolo[1,5-a]pyrimidine-3-carboxamide], in assay [1], the DC50 is 1.8 nM. The maximal degradation (Dmax) in assay [1] was determined as 95.8%. Moreover, the IC50 is 2.2 nM in assay [2], 246 nM in assay [3] and 15.5 nM against IRAK4 kinase.

A word on the DC50: it is the midpoint of the concentration-degradation curve. As usually defined, the Dmax is the largest share of the target that was removed. The low end stands for a partial loss of target, the high end for a fuller loss of target. The IC50 is the point on the concentration scale where inhibition reaches its midpoint.
